# According to publication doi:10.1101/2020.03.04.976639v2 (biorxiv, 2020):
# What was measured:
# [1] = molecular target: T1, PaThiL (P. aeruginosa thiamine monophosphate kinase, ThiL) (Pseudomonas aeruginosa, UniProt Q9HWX7); assay: luminescent kinase assay; type: biochemical
# T1 sequence (Q9HWX7 1-322): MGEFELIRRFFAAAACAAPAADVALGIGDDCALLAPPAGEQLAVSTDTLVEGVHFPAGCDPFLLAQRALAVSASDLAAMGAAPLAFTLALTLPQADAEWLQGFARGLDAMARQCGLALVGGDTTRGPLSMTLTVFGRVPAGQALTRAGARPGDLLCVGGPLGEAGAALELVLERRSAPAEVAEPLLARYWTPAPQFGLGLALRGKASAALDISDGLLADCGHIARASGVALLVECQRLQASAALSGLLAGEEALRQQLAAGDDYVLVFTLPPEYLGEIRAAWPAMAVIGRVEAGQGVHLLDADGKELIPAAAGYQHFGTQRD
# [2] = molecular target: T1, PaThiL (P. aeruginosa thiamine monophosphate kinase, ThiL); assay: luminescent kinase assay; type: biochemical; details: random Bi-Bi fit; TMP 0.78-50 µM; 50 mM Tris-HCl pH 8.0, 5 mM MgCl2, 350 mM KCl
Ki [1],Km [2],Compound
114 ± 27 µM,,O=C(O)Cc1c[nH]c2ccc(O)cc12 [5-hydroxyindolacetic acid]
,111 ± 8 µM,Nc1ncnc2c1ncn2[C@@H]1O[C@H](COP(=O)(O)OP(=O)(O)OP(=O)(O)O)[C@@H](O)[C@H]1O [ATP]
